Results reported in a compilation of properties of binary mixtures (doi:10.1021/acs.iecr.1c02970).

Assay: xn = mol fraction of the nth substance listed
Conditions: 100 kPa, x2 = 0

O + CC[n+]1ccn(C)c1.CS(=O)(=O)[O-]
Conditions	electrical conductivity [S/m]	speed of sound [m/s]	viscosity [mPa·s]
293.15 K	–	–	1.002
303.15 K	0.0001	–	0.797
313.15 K	0.0002	1529.2	0.653
318.15 K	–	1536.7	–
343.15 K	0.0018	1555.1	0.4039
353.15 K	0.0023	–	0.3544
